This is an account of results in PMC3488302 (MedChemComm, 2012).

One data set in a line: RRCK permeability. The note with it: MDCK; for Papp A→B: dog.
Data set [1] has as its system RRCK (Ralph Russ canine kidney cell line). The experiment in a line: RRCK permeability. To be noted: MDCK.
The conditions of data set [2]: rat intestinal S-9 fraction and rat brush border membrane vesicles.
The conditions of data set [3]: rat; cited from earlier work.
For the next data set, the system named is Caco-2. The note with it: cited from earlier work.

*1 amine or outer side, *2 acyl side, *3 side chain or, on linkers, in order; H or OH if unused. Where a SMILES comes first, the peptide text is derived from it. [ ]: non-standard residue; d: D form. The star is where a group is joined. NMeAbu(4-morpholino) = CN[C@@H](CCN1CCOCC1)C(=O)O; X1 = CN([C@@H](CCN1CCCCC1)C(=O)[*:2])[*:1]; NMeW = CN[C@@H](Cc1c[nH]c2ccccc12)C(=O)O; NMeY = CN[C@@H](Cc1ccc(O)cc1)C(=O)O; NMeCha = CN[C@@H](CC1CCCCC1)C(=O)O; NMeLys(Me) = CNCCCC[C@H](NC)C(=O)O; NMeF = CN[C@@H](Cc1ccccc1)C(=O)O; NMeI = CC[C@H](C)[C@H](NC)C(=O)O; NMeT = CN[C@H](C(=O)O)[C@@H](C)O; NMeD = CN[C@@H](CC(=O)O)C(=O)O; dNMeL = CN[C@H](CC(C)C)C(=O)O; NMeK = CN[C@@H](CCCCN)C(=O)O; NMeS = CN[C@@H](CO)C(=O)O; Morpholide = C1CN(*)CCO1; NMeA = CN[C@@H](C)C(=O)O; Piperidide = C1CCN(*)CC1

In the case of `CC(C)C[C@@H]1NC(=O)[C@H](Cc2ccc(O)cc2)N(C)C(=O)[C@H]2CCCN2C(=O)[C@H](CC(C)C)NC(=O)[C@H](Cc2ccc(O)cc2)N(C)C(=O)[C@@H](CC(C)C)N(C)C1=O` [Compound 6] (cyclo(L[dNMeL][NMeY]L[dP][NMeY])), the recovery in the data set “RRCK permeability” was 72.6%. Further, in data set [1], the “log Papp(RRCK)” value is listed as −5.88.
Molecule `CC(C)C[C@@H]1NC(=O)[C@H](Cc2ccc(O)cc2)N(C)C(=O)[C@H]2CCCN2C(=O)[C@H](CC(C)C)NC(=O)[C@H](CO)N(C)C(=O)[C@@H](CC(C)C)N(C)C1=O` [Compound 2] (cyclo(L[dNMeL][NMeS]L[dP][NMeY])) showed a recovery in “RRCK permeability” of 84.3%. In addition, the “log Papp(RRCK)” value in data set [1] is recorded as −5.81. In addition, the “stability towards oxidative or proteolytic degradation” value in data set [2] is given as “stable”.
“cyclo-[LPro-LPhe-DTrp(NMe)-LLys(NMe)-LThr-LPhe(NMe)] [Kessler peptide]”: the oral bioavailability in data set [3] was 10%. For the same molecule, in the data set on Caco-2, the Caco-2 permeability result is recorded as “good”.
For `CC(C)C[C@@H]1NC(=O)[C@H](Cc2ccc(O)cc2)N(C)C(=O)[C@H]2CCCN2C(=O)[C@H](CC(C)C)NC(=O)[C@H](CC(=O)N2CCCCC2)N(C)C(=O)[C@@H](CC(C)C)N(C)C1=O` [Compound 14] (cyclo(L[dNMeL][NMeD](Piperidide)L[dP][NMeY])), in “RRCK permeability”, the recovery came out at 45.6%. In data set [1], the “log Papp(RRCK)” value was −5.84.
`CC(C)C[C@@H]1NC(=O)[C@H](Cc2ccc(O)cc2)N(C)C(=O)[C@H]2CCCN2C(=O)[C@H](CC(C)C)NC(=O)[C@H](CCN2CCOCC2)N(C)C(=O)[C@@H](CC(C)C)N(C)C1=O` [Compound 15] (cyclo(L[dNMeL][NMeAbu(4-morpholino)]L[dP][NMeY])) gave a recovery in “RRCK permeability” of 48.7%. Further, in data set [1], the “log Papp(RRCK)” value is listed as −5.92.
Taken in the same sequence, the figures for `CC(C)C[C@@H]1NC(=O)[C@H](Cc2ccc(O)cc2)N(C)C(=O)[C@H]2CCCN2C(=O)[C@H](CC(C)C)NC(=O)[C@H](Cc2ccccc2)N(C)C(=O)[C@@H](CC(C)C)N(C)C1=O` [Compound 7] (cyclo(L[dNMeL][NMeF]L[dP][NMeY])) were 59.8% and −5.24.
In the same order, the values of `CC(C)C[C@@H]1NC(=O)[C@H](Cc2ccc(O)cc2)N(C)C(=O)[C@H]2CCCN2C(=O)[C@H](CC(C)C)NC(=O)[C@H](CCCCN)N(C)C(=O)[C@@H](CC(C)C)N(C)C1=O` [Compound 10] (cyclo(L[dNMeL][NMeK]L[dP][NMeY])) are 56.5% and −6.56.
In the same order, the values of `CC(C)C[C@@H]1NC(=O)[C@H](Cc2ccc(O)cc2)N(C)C(=O)[C@H]2CCCN2C(=O)[C@H](CC(C)C)NC(=O)[C@H](CC2CCCCC2)N(C)C(=O)[C@@H](CC(C)C)N(C)C1=O` [Compound 12] (cyclo(L[dNMeL][NMeCha]L[dP][NMeY])) are 12.2% and −6.74.
Turning to `CC(C)C[C@@H]1NC(=O)[C@H](Cc2ccc(O)cc2)N(C)C(=O)[C@H]2CCCN2C(=O)[C@H](CC(C)C)NC(=O)[C@H]([C@@H](C)O)N(C)C(=O)[C@@H](CC(C)C)N(C)C1=O` [Compound 3] (cyclo(L[dNMeL][NMeT]L[dP][NMeY])), the “log Papp(RRCK)” value in data set [1] is listed as −5.33.
The molecule `CC(C)C[C@@H]1NC(=O)[C@H](Cc2ccc(O)cc2)N(C)C(=O)[C@H]2CCCN2C(=O)[C@H](CC(C)C)NC(=O)[C@H](CCN2CCCCC2)N(C)C(=O)[C@@H](CC(C)C)N(C)C1=O` [Compound 13] (cyclo(L[dNMeL][X1]L[dP][NMeY])) showed a recovery in “RRCK permeability” of 47.9%. In data set [1], the “log Papp(RRCK)” value is −6.15.
Taken in the same sequence, the figures for `CC(C)C[C@@H]1NC(=O)[C@H](Cc2ccc(O)cc2)N(C)C(=O)[C@H]2CCCN2C(=O)[C@H](CC(C)C)NC(=O)[C@H](CC(=O)N2CCOCC2)N(C)C(=O)[C@@H](CC(C)C)N(C)C1=O` [Compound 16] (cyclo(L[dNMeL][NMeD](Morpholide)L[dP][NMeY])) were 47.9% and −6.20.
`CC(C)C[C@@H]1NC(=O)[C@H](Cc2ccc(O)cc2)N(C)C(=O)[C@H]2CCCN2C(=O)[C@H](CC(C)C)NC(=O)[C@H](Cc2c[nH]c3ccccc23)N(C)C(=O)[C@@H](CC(C)C)N(C)C1=O` [Compound 8] (cyclo(L[dNMeL][NMeW]L[dP][NMeY])) had a recovery in the data set “RRCK permeability” of 37.1%. For the same molecule, the “log Papp(RRCK)” value in data set [1] is recorded as −6.66.
For `CC[C@H](C)[C@H]1C(=O)N[C@@H](CC(C)C)C(=O)N2CCC[C@@H]2C(=O)N(C)[C@@H](Cc2ccc(O)cc2)C(=O)N[C@@H](CC(C)C)C(=O)N(C)[C@H](CC(C)C)C(=O)N1C` [Compound 4] (cyclo(L[dNMeL][NMeI]L[dP][NMeY])), the recovery in the data set “RRCK permeability” was determined as 39.7%.
In the data set “RRCK permeability”, `CNCCCC[C@H]1C(=O)N[C@@H](CC(C)C)C(=O)N2CCC[C@@H]2C(=O)N(C)[C@@H](Cc2ccc(O)cc2)C(=O)N[C@@H](CC(C)C)C(=O)N(C)[C@H](CC(C)C)C(=O)N1C` [Compound 11] (cyclo(L[dNMeL][NMeLys(Me)]L[dP][NMeY])) had a recovery of 59.7% and a Papp A→B of 2.34 nm/s.
Molecule `CC(C)C[C@@H]1NC(=O)[C@H](Cc2ccc(O)cc2)N(C)C(=O)[C@H]2CCCN2C(=O)[C@H](CC(C)C)NC(=O)[C@H](C)N(C)C(=O)[C@@H](CC(C)C)N(C)C1=O` [Compound 5] (cyclo(L[dNMeL][NMeA]L[dP][NMeY])) registered a recovery in the data set “RRCK permeability” of 47.1%. The “log Papp(RRCK)” value in data set [1] is listed as −5.26.
Turning to `CC(C)C[C@@H]1NC(=O)[C@H](Cc2ccc(O)cc2)N(C)C(=O)[C@H]2CCCN2C(=O)[C@H](CC(C)C)NC(=O)[C@H](CC(=O)O)N(C)C(=O)[C@@H](CC(C)C)N(C)C1=O` [Compound 9] (cyclo(L[dNMeL][NMeD]L[dP][NMeY])), in “RRCK permeability”, the recovery came out at 74.8% and the Papp A→B was 4.57 nm/s.

Usually Papp A→B stands for how fast a substance crosses the layer from the apical side. Higher therefore signals fast passage.
